From patent US10597391B2, “Urea-containing isoxazole derivatives as FXR agonists and methods of use thereof” (Enanta Pharmaceuticals, Inc., priority 2016, dated 2020)
Read-outs that look alike come from different tables or passages of the source.

Target: T1, human FXR (NR1H4) (Homo sapiens, UniProt Q96RI1)
T1 sequence (Q96RI1 1-486): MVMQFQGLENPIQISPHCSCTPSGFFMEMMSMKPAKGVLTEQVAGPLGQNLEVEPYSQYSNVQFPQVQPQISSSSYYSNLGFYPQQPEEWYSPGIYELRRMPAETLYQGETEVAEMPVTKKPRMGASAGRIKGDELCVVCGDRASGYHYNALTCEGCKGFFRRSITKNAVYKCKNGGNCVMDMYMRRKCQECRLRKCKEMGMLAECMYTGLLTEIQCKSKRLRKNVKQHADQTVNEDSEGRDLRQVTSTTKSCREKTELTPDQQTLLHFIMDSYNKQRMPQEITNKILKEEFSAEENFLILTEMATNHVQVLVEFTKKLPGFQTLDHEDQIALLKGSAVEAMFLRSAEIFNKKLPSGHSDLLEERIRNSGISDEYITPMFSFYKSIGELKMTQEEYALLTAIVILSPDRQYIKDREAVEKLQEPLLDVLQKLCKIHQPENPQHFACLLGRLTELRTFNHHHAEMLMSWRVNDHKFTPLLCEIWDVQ
Assay: Human FXR (NR1H4) Assay: Gal4 promoter driven luciferase reporter transactivation in CHO cells (Indigo Bioscience kit IB00601)
Type: cell-based
Conditions: for EC50: potency range, Human FXR (NR1H4) reporter assay in CHO cells, read-out: EC50; for Emax: CHO, read-out: Efficacy (%)
Excerpt: Human FXR (NR1H4) Assay Determination of a ligand mediated Gal4 promoter driven transactivation to quantify ligand binding mediated activation of FXR. FXR Reporter Assay kit purchased from Indigo Bioscience (Catalogue number: IB00601) to determine the potency and efficacy of compounds that can induce FXR activation. The principle application of this reporter assay system is to quantify functional activity of human FXR. The assay utilizes non-human mammalian cells, CHO (Chinese hamster ovary) cells engineered to express human NR1H4 protein (referred to as FXR). Reporter cells also incorporate the cDNA encoding beetle luciferase which catalyzes the substrates and yields photon emission. Luminescence intensity of the reaction is quantified using a plate-reading luminometer, Envision. Reporter Cells include the luciferase reporter gene functionally linked to an FXR responsive promoter. Thus, quantifying changes in luciferase expression in the treated reporter cells provides a sensitive surrogate measure of the changes in FXR activity. […] The assay is according to the manufacturer's instructions. […] Retrieve Reporter Cells from −80° C. storage. Perform a rapid thaw of the frozen cells by transferring a 10 ml volume of 37° C. cell recovery medium into the tube of frozen cells. […] Retrieve the tube of Reporter Cell Suspension from the water bath. […] Dispense 90 μl of cell suspension into each well of the 96-well Assay Plate. Transfer the plate into 37° C. incubator, allowing the cells adherent to the bottom of the well. Dilute compounds in Dilution Plate (DP), and administrate to cells at Assay Plate (AP). […] Cells were incubated for additional 22 hours before luciferase activities were measured. Thirty minutes before intending to quantify FXR activity, remove Detection Substrate and Detection Buffer from the refrigerator and place them in a low-light area so that they may equilibrate to room temperature. Remove the plate's lid and discard all media contents by ejecting it into an appropriate waste container. Gently tap the inverted plate onto a clean absorbent paper towel to remove residual droplets. Cells will remain tightly adhered to well bottoms. Add 100 μl of luciferase detection reagent to each well of the assay plate. Allow the assay plate to rest at room temperature for at least 5 minutes following the addition of LDR. Set the instrument (Envision) to perform a single 5 second “plate shake” prior to reading the first assay well. Read time may be 0.5 second (500 mSec) per well.

[1] = efficacy normalized to CDCA set as 100%

SMILES | EC50 | Emax [1] | Emax
Cn1nnnc1-c1cccc(NC(=O)N2C3CCC2CC(OCc2c(-c4c(Cl)cccc4Cl)noc2C2CC2)C3)c1 (stereo not drawn) [Example 186] | 10 to 100 nM |  | 
O=C(O)c1ccc(NC(=O)N2C3CCC2CC(OCc2c(-c4ccccc4C(F)(F)F)noc2C2CC2)C3)c(F)c1 (stereo not drawn) [Example 807] | 10 to 100 nM | 42% | 
O=C(NCc1ccccc1)N1C2CCC1CC(OCc1c(-c3c(Cl)cccc3Cl)noc1C1CC1)C2 (stereo not drawn) [Example 730] | < 10 nM | 252% | 
CC(C)(C)c1ccc(C(=O)NC(=O)N2C3CCC2CC(OCc2c(-c4c(Cl)cccc4Cl)noc2C2CC2)C3)cc1 (stereo not drawn) [Example 806] | 10 to 100 nM | 5% | 
COC(=O)c1ccc2c(c1)N(C(=O)N1C3CCC1CC(OCc1c(-c4ccccc4OC(F)(F)F)noc1C1CC1)C3)CC2 (stereo not drawn) [Example 589] | > 1000 nM |  | 76%
CCOc1cc(C(=O)O)ccc1NC(=O)N1C2CCC1CC(OCc1c(-c3c(Cl)cccc3Cl)noc1C1CC1)C2 (stereo not drawn) [Example 720] | < 10 nM | 171% | 
COc1ccc(C(=O)O)cc1NC(=O)N1C2CCC1CC(OCc1c(-c3c(Cl)cccc3Cl)noc1C1CC1)C2 (stereo not drawn) [Example 725] | 100 to 1000 nM | 140% | 
O=C(Nc1cccc(-c2ccccc2)c1)N1C2CCC1CC(OCc1c(-c3c(Cl)cccc3Cl)noc1C1CC1)C2 (stereo not drawn) [Example 729] | < 10 nM | 148% | 
O=C(O)c1ccc(F)c(NC(=O)N2C3CCC2CC(OCc2c(-c4c(Cl)cccc4Cl)noc2C2CC2)C3)c1 (stereo not drawn) [Example 723] | 100 to 1000 nM | 140% | 
O=C(Nc1ccccn1)N1C2CCC1CC(OCc1c(-c3c(Cl)cccc3Cl)noc1C1CC1)C2 (stereo not drawn) [Example 16] | 100 to 1000 nM |  | 
COC(=O)c1cc(NC(=O)N2C3CCC2CC(OCc2c(-c4c(Cl)cccc4Cl)noc2C2CC2)C3)cc(-c2cccnc2)c1 (stereo not drawn) [Example 726] | < 10 nM | 81% | 
O=C(Nc1cccc(-c2ccc(C(F)(F)F)nc2)c1)N1C2CCC1CC(OCc1c(-c3c(Cl)cccc3Cl)noc1C1CC1)C2 (stereo not drawn) [Example 706] | 10 to 100 nM | 207% | 
CN1CC=C(c2cccc(NC(=O)N3C4CCC3CC(OCc3c(-c5c(Cl)cccc5Cl)noc3C3CC3)C4)c2)CC1 (stereo not drawn) [Example 715] | 10 to 100 nM | 123% | 
Cn1cc(-c2cccc(NC(=O)N3C4CCC3CC(OCc3c(-c5c(Cl)cccc5Cl)noc3C3CC3)C4)c2)cn1 (stereo not drawn) [Example 13] | < 10 nM |  | 
COC(=O)c1ccc(NC(=O)N2C3CCC2CC(OCc2c(-c4c(Cl)cccc4Cl)noc2C2CC2)C3)c(OC(F)(F)F)c1 (stereo not drawn) [Example 716] | 100 to 1000 nM | 43% | 
CC(C)S(=O)(=O)NC(=O)c1ccc(NC(=O)N2C3CCC2CC(OCc2c(-c4ccccc4OC(F)(F)F)noc2C2CC2)C3)cc1 (stereo not drawn) [Example 754] | 100 to 1000 nM | 236% | 
COC(=O)c1ccc2c(c1)CN(C(=O)N1C3CCC1CC(OCc1c(-c4ccccc4OC(F)(F)F)noc1C1CC1)C3)CC2 (stereo not drawn) [Example 833] | > 1000 nM | 80% | 
COC(=O)c1cc(OC)c(NC(=O)N2C3CCC2CC(OCc2c(-c4c(Cl)cccc4Cl)noc2C2CC2)C3)cc1-c1ccccc1 (stereo not drawn) [Example 792] | < 10 nM | 92% | 
N#Cc1cncc(NC(=O)N2C3CCC2CC(OCc2c(-c4c(Cl)cccc4Cl)noc2C2CC2)C3)c1 (stereo not drawn) [Example 703] | < 10 nM | 170% | 
CN(C)S(=O)(=O)NC(=O)c1cccc(NC(=O)N2C3CCC2CC(OCc2c(-c4ccccc4OC(F)(F)F)noc2C2CC2)C3)c1 (stereo not drawn) [Example 265] | 100 to 1000 nM |  | 
O=C(Nc1cncc(-c2ccccc2)c1)N1C2CCC1CC(OCc1c(-c3c(Cl)cccc3Cl)noc1C1CC1)C2 (stereo not drawn) [Example 835] | < 10 nM | 223% | 
CS(=O)(=O)NC(=O)c1ccc(NC(=O)N2C3CCC2CC(OCc2c(-c4ccccc4OC(F)(F)F)noc2C2CC2)C3)cc1 (stereo not drawn) [Example 752] | > 1000 nM | 239% | 

SMILES | EC50 | Emax [1] | Emax
O=C(O)c1ccc(NC(=O)N2C3CCC2CC(OCc2c(C4CCC5(CC4)CC5)noc2C2CC2)C3)c(C(F)(F)F)c1 (stereo not drawn) [Example 819] | 10 to 100 nM | 11% | 
COc1cc(C(=O)O)c(-c2ccccc2)cc1NC(=O)N1C2CCC1CC(OCc1c(-c3c(Cl)cccc3Cl)noc1C1CC1)C2 (stereo not drawn) [Example 793] | < 10 nM | 99% | 
O=C(O)c1ccc(NC(=O)N2C3CCC2CC(OCc2c(-c4c(Cl)cccc4Cl)noc2C2CC2)C3)cc1F (stereo not drawn) [Example 197] | 10 to 100 nM |  | 
COc1cccc(C(=O)O)c1NC(=O)N1C2CCC1CC(OCc1c(-c3ccccc3OC(F)(F)F)noc1C1CC1)C2 (stereo not drawn) [Example 762] | 100 to 1000 nM | 6% | 
COC(=O)c1ccc(NC(=O)N2C3CCC2CC(OCc2c(-c4c(Cl)cccc4Cl)noc2C2CC2)C3)cc1-c1ccc(C(F)(F)F)nc1 (stereo not drawn) [Example 796] | < 10 nM | 95% | 
O=C(Nc1cccc(-c2ccccn2)c1)N1C2CCC1CC(OCc1c(-c3c(Cl)cccc3Cl)noc1C1CC1)C2 (stereo not drawn) [Example 736] | < 10 nM | 136% | 
CCOC(=O)c1ccc(NC(=O)N2C3CCC2CC(NCc2c(-c4c(Cl)cccc4Cl)noc2C2CC2)C3)cc1 (stereo not drawn) [Example 825] | 10 to 100 nM | 104% | 
O=C(O)c1ccc(NC(=O)N2C3CCC2CC(OCc2c(-c4c(F)cccc4F)noc2C2CC2)C3)cc1-c1ccccc1 (stereo not drawn) [Example 816] | 10 to 100 nM | 36% | 
O=C(O)c1ccc2c(c1)N(C(=O)N1C3CCC1CC(OCc1c(-c4ccccc4OC(F)(F)F)noc1C1CC1)C3)CCC2 (stereo not drawn) [Example 596] | > 1000 nM |  | 48%
CC(C)(C)c1ccc(S(=O)(=O)NC(=O)c2ccc(NC(=O)N3C4CCC3CC(OCc3c(-c5ccccc5OC(F)(F)F)noc3C3CC3)C4)cc2)cc1 (stereo not drawn) [Example 757] | 100 to 1000 nM | 257% | 
CCOC(=O)c1ccc2nc(NC(=O)N3C4CCC3CC(OCc3c(-c5c(Cl)cccc5Cl)noc3C3CC3)C4)sc2c1 (stereo not drawn) [Example 804] | 10 to 100 nM | 90% | 
O=C(Nc1ccc(F)c(F)c1)N1C2CCC1CC(OCc1c(-c3c(Cl)cccc3Cl)noc1C1CC1)C2 (stereo not drawn) [Example 699] | 10 to 100 nM | 232% | 
O=C(O)c1ccnc(NC(=O)N2C3CCC2CC(OCc2c(-c4ccccc4OC(F)(F)F)noc2C2CC2)C3)c1 (stereo not drawn) [Example 770] | > 1000 nM | 93% | 
O=C(O)c1ccc2nc(NC(=O)N3C4CCC3CC(OCc3c(-c5c(Cl)cccc5Cl)noc3C3CC3)C4)ccc2c1 (stereo not drawn) [Example 789] | 10 to 100 nM | 57% | 
COC(=O)CNC(=O)c1ccc(NC(=O)N2C3CCC2CC(OCc2c(-c4c(Cl)cccc4Cl)noc2C2CC2)C3)c(F)c1 (stereo not drawn) [Example 781] | 10 to 100 nM | 100% | 
O=C(O)c1ccc2c(c1)CN(C(=O)N1C3CCC1CC(OCc1c(-c4ccccc4OC(F)(F)F)noc1C1CC1)C3)C2 (stereo not drawn) [Example 598] | 10 to 100 nM |  | 105%
O=C(Nc1cc(F)cc(C(F)(F)F)c1)N1C2CCC1CC(OCc1c(-c3c(Cl)cccc3Cl)noc1C1CC1)C2 (stereo not drawn) [Example 11] | < 10 nM |  | 
CC(C)(C)c1cccc(NC(=O)N2C3CCC2CC(OCc2c(-c4c(Cl)cccc4Cl)noc2C2CC2)C3)c1 (stereo not drawn) [Example 4] | 10 to 100 nM |  | 
O=C(O)c1ccc(F)c(NC(=O)N2C3CCC2CC(OCc2c(-c4ccccc4OC(F)(F)F)noc2C2CC2)C3)c1 (stereo not drawn) [Example 748] | 10 to 100 nM | 103% | 
CCOc1cc(C(=O)OC)ccc1NC(=O)N1C2CCC1CC(OCc1c(-c3c(Cl)cccc3Cl)noc1C1CC1)C2 (stereo not drawn) [Example 718] | 10 to 100 nM | 119% | 
O=C(Nc1ccc(F)cc1)N1C2CCC1CC(OCc1c(-c3c(Cl)cccc3Cl)noc1C1CC1)C2 (stereo not drawn) [Example 698] | 10 to 100 nM | 182% | 
COc1c(NC(=O)N2C3CCC2CC(OCc2c(-c4ccccc4OC(F)(F)F)noc2C2CC2)C3)cccc1C(=O)OC(C)(C)C (stereo not drawn) [Example 760] | > 1000 nM | 180% | 
